Experimental data taken from patent publication US20230210999A1, “TARGETED PROTEASE DEGRADATION (TED) PLATFORM” (EUBULUS BIOTHERAPEUTICS INC., priority 2020, published 2023).
Like-named read-outs stand apart in the source and are kept apart here.

How the values were obtained:
Type in all cases: cell-based, human
[1] = tested on: MV4;11 cells; experiment: Cell proliferation experiment (Alamar blue, 72 h), MV4;11; settings: read-out: Inhibitory activity IC50 on MV4;11
Method in brief: (§1)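 Alamar blue fluorescence after 72 h of compound exposure; IC50 from 4-parameter fit (Min, Max, Slope). Cells passaged ≥2 times, log-phase, 96-well, duplicate wells, 5-fold serial dilutions.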

[2] = tested on: MDA-MB-231 cells; experiment: Cell proliferation experiment, MDA-MB-231
Method in brief: as §1

[3] = tested on: PC-3; experiment: Cell proliferation experiment, PC-3; settings: read-out: Inhibitory activity IC50 on PC-3
Method in brief: as §1

[4] = tested on: NCIH82 cells; experiment: Cell proliferation experiment, NCI-H82; settings: read-out: Inhibitory activity IC50 on NCI-H82
Method in brief: as §1

[5] = Homo sapiens, MV4-11, MV4;11 cells
[6] = Homo sapiens, MDA-MB-231, MDA-MB-231 cells, read-out: Inhibitory activity IC50 on MDA-MB-231
[7] = Homo sapiens, NCI-H82, NCI-H82 cells

Row | SMILES | IC50 [1, 5] [µM] | IC50 [2, 6] [µM] | IC50 ([3]; Homo sapiens, PC-3, PC-3 cells) [µM] | IC50 [4, 7] [µM] | IC50 ([2]; Homo sapiens, MDA-MB-231, read-out: Inhibitory activity IC50 on MDA-MB-231) [µM] | IC50 ([1]; MV4;11 cells) [µM] | IC50 ([2]; MDA-MB-231 cells, read-out: Inhibitory activity IC50 on MDA-MB-231) [µM] | IC50 ([3]; PC-3 cells) [µM] | IC50 ([4]; NCI-H82 cells) [µM]
1 | CNC(=O)c1ncccc1Nc1nc(Nc2ccc(N3CCN(C(=O)NC4CCC(NCCOCCC#Cc5cccc6c5CN(C5CCC(=O)NC5=O)C6=O)CC4)CC3)cc2)ncc1Cl (stereo not shown) [UB-181128] | < 0.01 | > 1 | > 1 | > 1 |  |  |  |  | 
2 | CNC(=O)c1ccccc1Nc1nc(Nc2ccc(N3CCN(C(=O)NCCCNCCOCC(=O)Nc4cccc5c4CN(C4CCC(=O)NC4=O)C5=O)CC3)cc2)ncc1Cl (stereo not shown) [UB-181061] | < 0.01 | 0.1 to 1 | > 1 | 0.1 to 1 |  |  |  |  | 
3 | CNC(=O)c1ccccc1Nc1nc(Nc2ccc(N3CCN(C(=O)NCCOCCOCCCNCC(=O)Nc4cccc5c4CN(C4CCC(=O)NC4=O)C5=O)CC3)cc2)ncc1Cl (stereo not shown) [UB-181040] | 0.01 to 0.1 | > 1 | > 1 | > 1 |  |  |  |  | 
4 | CNC(=O)c1ccccc1Nc1nc(Nc2ccc(N3CCN(C(=O)NCCOCCOCC(N)COCCC(=O)Nc4cccc5c4CN(C4CCC(=O)NC4=O)C5=O)CC3)cc2)ncc1Cl (stereo not shown) [UB-181073] | < 0.01 | > 1 | > 1 | > 1 |  |  |  |  | 
5 | CS(=O)(=O)c1ccccc1Nc1nc(Nc2ccc(C3CCN(C(=O)N[C@H]4CC[C@@H](NCCOCCC#Cc5ccc6c(c5)CN(C5CCC(=O)NC5=O)C6=O)CC4)CC3)cc2)ncc1Cl (stereo partly shown) [UB-181140] | < 0.01 | 0.1 to 1 | 0.1 to 1 | 0.1 to 1 |  |  |  |  | 
6 | CNC(=O)c1ccccc1Nc1nc(Nc2ccc(N3CCN(C(=O)NCCOCC(O)COCCOCCC(=O)Nc4cccc5c4CN(C4CCC(=O)NC4=O)C5=O)CC3)cc2)ncc1Cl (stereo not shown) [UB-181079] | < 0.01 | > 1 | > 1 | 0.1 to 1 |  |  |  |  | 
7 | CNC(=O)c1ccccc1Nc1nc(Nc2ccc(N3CCN(C(=O)NCCOCC(COCCOCCC(=O)Nc4ccc5c(c4)CN(C4CCC(=O)NC4=O)C5=O)NC)CC3)cc2)ncc1Cl (stereo not shown) [UB-181090] | 0.01 to 0.1 |  | > 1 | > 1 | > 1 |  |  |  | 
8 | N#Cc1ccccc1Nc1nc(Nc2ccc(N3CCN(C(=O)N[C@H]4CC[C@@H](NCCOCCC#Cc5cccc6c5CN(C5CCC(=O)NC5=O)C6=O)CC4)CC3)cc2)ncc1Cl (stereo partly shown) [UB-181132] | < 0.01 | 0.1 to 1 | 0.1 to 1 | 0.1 to 1 |  |  |  |  | 
9 | CNC(=O)c1ccccc1Nc1nc(Nc2ccc(N3CCN(C(=O)NC4CCC(NCCCCOCC(=O)Nc5ccc6c(c5)CN(C5CCC(=O)NC5=O)C6=O)CC4)CC3)cc2)ncc1Cl (stereo not shown) [UB-181109] | 0.01 to 0.1 | > 1 | > 1 | 0.1 to 1 |  |  |  |  | 
10 | CNC(=O)c1ccccc1Nc1nc(Nc2ccc(N3CCN(C(=O)NCCCOCCCNCCC#Cc4cccc5c4CN(C4CCC(=O)NC4=O)C5=O)CC3)cc2)ncc1Cl (stereo not shown) [UB-181070] | 0.01 to 0.1 | 0.1 to 1 | > 1 | 0.1 to 1 |  |  |  |  | 
11 | O=C1CCC(N2Cc3cc(NC(=O)COCCOCCOCC(O)Cn4cc(-c5ccc(Nc6ncc7c(n6)-c6ccc(Cl)cc6C(c6c(F)cccc6F)=NC7)cc5)nn4)ccc3C2=O)C(=O)N1 (stereo not shown) [UB-181071] | 0.1 to 1 | > 1 | > 1 | > 1 |  |  |  |  | 
12 | CNC(=O)c1ccccc1Nc1nc(Nc2ccc(N3CCN(C(=O)N[C@H]4CC[C@@H](NCCOCCC#Cc5ccc6c(c5)CN(C5CCC(=O)NC5=O)C6=O)CC4)CC3)cc2)ncc1C#N (stereo partly shown) [UB-181123] |  |  |  |  |  | < 0.01 | 0.1 to 1 | 0.01 to 0.1 | 0.1 to 1
13 | CNC(=O)c1ccccc1Nc1nc(Nc2ccc(N3CCN(C(=O)NCCNCCOCC(=O)Nc4ccc5c(c4)CN(C4CCC(=O)NC4=O)C5=O)CC3)cc2)ncc1Cl (stereo not shown) [UB-181058] | 0.01 to 0.1 | > 1 | > 1 | 0.1 to 1 |  |  |  |  | 
14 | O=C1CCC(N2Cc3c(NC(=O)CCNCCOCCOCCNC(=O)[C@]4(Cc5cccc(Nc6nccs6)n5)CC[C@@H](Oc5cccc(Cl)c5F)CC4)cccc3C2=O)C(=O)N1 (stereo partly shown) [UB-181036] | > 1 | > 1 | > 1 | > 1 |  |  |  |  | 
15 | O=C1CCC(N2Cc3cc(NC(=O)CCOCCOCCOCCN[C@H]4CC[C@@H](NC(=O)[C@]5(Cc6cccc(Nc7nccs7)n6)CC[C@@H](Oc6cccc(Cl)c6F)CC5)CC4)ccc3C2=O)C(=O)N1 (stereo partly shown) [UB-181038] | > 1 | > 1 | > 1 | > 1 |  |  |  |  | 
16 | CNC(=O)c1ncccc1Nc1nc(Nc2ccc(N3CCN(C(=O)N[C@H]4CC[C@@H](NCCOCCC#Cc5ccc6c(c5)CN(C5CCC(=O)NC5=O)C6=O)CC4)CC3)cc2)ncc1C#N (stereo partly shown) [UB-181117] | 0.01 to 0.1 | > 1 | > 1 | > 1 |  |  |  |  | 
